Reference: ChEMBL document CHEMBL1132871, “Antimycobacterial activity of ionic fullerene derivatives” (Bioorg Med Chem Lett, 2000)
≈ marks a conversion by molar mass, not a printed value.

Tests used:
[1] = system: Mycobacterium tuberculosis; assay: The compound was tested for its ability to inhibit the growth of Mycobacterium tuberculosis strain H37Rv; type: functional
[2] = system: Mycobacterium tuberculosis; assay: The compound was tested for its ability to inhibit the growth of Mycobacterium tuberculosis strain H6/99; type: functional
Mycobacterium avium [3] = assay: The compound was tested for its ability to inhibit the growth of Mycobacterium avium.; type: functional
Mycobacterium avium [4] = assay: The compound was tested for its ability to inhibit the growth of Mycobacterium avium; Resistant; type: functional, organism-based
[5] = system: Mycobacterium tuberculosis; assay: The compound was tested for its ability to inhibit the growth of Mycobacterium tuberculosis strain H37Rv; Sensitive; type: functional, organism-based
[6] = Solubility in DMSO:water(9:1); type: physicochemical; conditions: read-out: S

SMILES | MIC [1] | MIC [2] | MIC (Mycobacterium avium [3]) | MIC (Mycobacterium avium [4]) | MIC [5] | solubility [6]
COCCOCCOCC[N+]1(C)CCCC1COCCOCCOC.[I-] (stereo not given) | > 500 µg/mL | > 500 µg/mL | > 500 µg/mL | – | – | –
CO[C@H]1/C=C/O[C@@]2(C)Oc3c(C)c(O)c4c(O)c(c(/C=N/N5CCN(C)CC5)c(O)c4c3C2=O)NC(=O)/C(C)=C\C=C\[C@H](C)[C@H](O)[C@@H](C)[C@@H](O)[C@@H](C)[C@H](OC(C)=O)[C@@H]1C | – | – | – | Resistant | Sensitive | –
COCCOCCOCC1CCCN1C (stereo not given) | > 500 µg/mL | > 500 µg/mL | > 500 µg/mL | – | – | –
COCCOCCOCC1N(C)CC23C4=C5C6=C7c8c9c%10c%11c%12c%13c%14c(c2c2c%15c%16c%17c%18c%19c(c5c5c%20c%21c%22c%23c(c8C%22C65)c%10c5c%11c6c%13c8c(c%15%14)c%16c%10c%18c%11c(c%20%19)c%21c%13c%23c5c5c%13c%11c%10c8c65)C%17C42)C%12C9C713 (stereo not given) | – | – | – | – | – | 15 µM (≈ 13.7 µg/mL)
COCCOCCOCC[N+]1(C)CCCC1.[I-] | > 500 µg/mL | > 500 µg/mL | > 500 µg/mL | – | – | –
COCCOCCOCCN1CC23C4=C5C6=C7c8c9c%10c%11c%12c%13c%14c(c2c2c%15c%16c%17c%18c%19c(c5c5c%20c%21c%22c%23c(c8C%22C65)c%10c5c%11c6c%13c8c(c%15%14)c%16c%10c%18c%11c(c%20%19)c%21c%13c%23c5c5c%13c%11c%10c8c65)C%17C42)C%12C9C73C1 (stereo not given) | – | – | – | – | – | 15 µM (≈ 13.7 µg/mL)
COCCOCCOCC1C23C4=C5C6=C7C8c9c(c%10c%11c%12c%13c%14c%15c(c4c4c%16c%17c%18c%19c%20c(c6c6c%21c%22c(c%23c9c%11c9c%23c%11c%22c%22c(c%20%21)c%19c%19c%17c%17c(c%15%16)c%14c%14c%12c9c9c%11c%22c%19c%17c%149)C68)C5C4%18)C2C%10%13)C73C[N+]1(C)C.[I-] (stereo not given) | 50 µg/mL | 5 µg/mL | 500 µg/mL | – | – | 15 µM
NNC(=O)c1ccncc1 | – | – | – | Resistant | Sensitive | –
COCCOCCOCC[N+]1(C)CC23C4=C5C6=C7c8c9c%10c%11c%12c%13c%14c(c2c2c%15c%16c%17c%18c%19c(c5c5c%20c%21c%22c%23c(c8C%22C65)c%10c5c%11c6c%13c8c(c%15%14)c%16c%10c%18c%11c(c%20%19)c%21c%13c%23c5c5c%13c%11c%10c8c65)C%17C42)C%12C9C73C1.[I-] (stereo not given) | 50 µg/mL | 500 µg/mL | 500 µg/mL | – | – | 43 µM
COCCOCCOCCN1CCCC1COCCOCCOC (stereo not given) | > 500 µg/mL | > 500 µg/mL | > 500 µg/mL | – | – | –
COCCOCCOCCN1CC23C4=C5C6=C7c8c9c%10c%11c%12c%13c%14c(c2c2c%15c%16c%17c%18c%19c(c5c5c%20c%21c%22c%23c(c8C%22C65)c%10c5c%11c6c%13c8c(c%15%14)c%16c%10c%18c%11c(c%20%19)c%21c%13c%23c5c5c%13c%11c%10c8c65)C%17C42)C%12C9C73C1COCCOCCOC (stereo not given) | 500 µg/mL (≈ 477 µM) | 500 µg/mL (≈ 477 µM) | 50 µg/mL (≈ 47.7 µM) | – | – | 30 µM (≈ 31.4 µg/mL)
COCCOCCOCC[N+]1(C)CC23C4=C5C6=C7c8c9c%10c%11c%12c%13c%14c(c2c2c%15c%16c%17c%18c%19c(c5c5c%20c%21c%22c%23c(c8C%22C65)c%10c5c%11c6c%13c8c(c%15%14)c%16c%10c%18c%11c(c%20%19)c%21c%13c%23c5c5c%13c%11c%10c8c65)C%17C42)C%12C9C73C1COCCOCCOC.[I-] (stereo not given) | 50 µg/mL | 5 µg/mL | 50 µg/mL | – | – | 95 µM
COCCOCCOCC1CCC[N+]1(C)C.[I-] (stereo not given) | > 500 µg/mL | > 500 µg/mL | > 500 µg/mL | – | – | –
COCCOCCOCCN1CCCC1 | > 500 µg/mL | > 500 µg/mL | > 500 µg/mL | – | – | –
